Assay results as given in paper PMC3328449, “Inhibition of Diacylglycerol–Sensitive TRPC Channels by Synthetic and Natural Steroids” (PLoS ONE, 2012).

Target: T1, mTRPC5 (Mus musculus, UniProt Q9QX29)
T1 construct: expressed in transfected cells
T1 sequence (Q9QX29 1-975): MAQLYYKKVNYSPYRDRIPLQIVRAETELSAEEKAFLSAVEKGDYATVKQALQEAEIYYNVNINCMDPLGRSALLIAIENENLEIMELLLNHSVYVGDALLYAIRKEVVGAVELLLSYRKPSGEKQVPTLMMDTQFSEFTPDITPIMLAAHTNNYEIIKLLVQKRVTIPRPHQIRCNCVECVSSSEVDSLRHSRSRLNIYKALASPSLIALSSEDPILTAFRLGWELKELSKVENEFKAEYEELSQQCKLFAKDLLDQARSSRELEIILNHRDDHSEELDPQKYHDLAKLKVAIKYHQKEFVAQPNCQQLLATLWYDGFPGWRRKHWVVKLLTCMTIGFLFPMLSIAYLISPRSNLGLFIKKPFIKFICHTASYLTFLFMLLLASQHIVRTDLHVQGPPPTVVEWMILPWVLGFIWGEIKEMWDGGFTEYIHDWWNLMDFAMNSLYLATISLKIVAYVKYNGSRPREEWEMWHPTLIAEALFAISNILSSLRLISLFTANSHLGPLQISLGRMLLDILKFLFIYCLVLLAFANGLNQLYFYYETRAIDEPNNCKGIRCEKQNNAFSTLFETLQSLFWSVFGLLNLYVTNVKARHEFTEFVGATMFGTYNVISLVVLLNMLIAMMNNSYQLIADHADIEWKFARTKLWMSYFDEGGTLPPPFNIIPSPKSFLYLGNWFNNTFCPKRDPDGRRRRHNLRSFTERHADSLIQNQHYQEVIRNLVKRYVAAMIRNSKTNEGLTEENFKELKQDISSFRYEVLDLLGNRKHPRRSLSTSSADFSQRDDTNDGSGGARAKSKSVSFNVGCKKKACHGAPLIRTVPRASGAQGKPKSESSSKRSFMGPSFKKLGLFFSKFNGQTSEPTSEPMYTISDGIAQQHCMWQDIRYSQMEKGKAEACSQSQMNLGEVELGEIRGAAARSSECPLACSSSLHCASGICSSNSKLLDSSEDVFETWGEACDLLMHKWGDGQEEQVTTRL
Assay: Trypsin-induced Ca2+ entry, fluo-4 fluorometric imaging plate reader, TRPC5 HEK-FITR cells
Type: cell-based
Procedure: Cells were grown at 37°C in a humidified atmosphere (5% or 7% CO2) under standard cell culture conditions. Stable human embryonic kidney (HEK) cell lines expressing recombinant mTRPC4ß (GenBank accession number AAC05178); mTRPC5 (GenBank accession number NM_009428) or hTRPC6 (GenBank accession number AF080394) under the control of a tetracycline-inducible promoter were generated using the Flp-In T-Rex (FITR) system (Invitrogen, Karlsruhe, Germany). […]
Cells grown to an almost confluent monolayer on black poly-D-lysine coated 96-well plates (Greiner, Frickenhausen, Germany) were washed with standard extracellular solution (140 mM NaCl, 1 mM MgCl2, 5.4 mM KCl, 2 mM CaCl2, 10 mM HEPES, 10 mM glucose, pH 7.35) and stained (30 min, room temperature) with dye solution (2 µM fluo-4 AM, 0.02% pluronic F127, 0.1% bovine serum albumin in standard extracellular solution). […] Fluo-4 fluorescence was excited at 488 nm with an argon laser and measured using a fluorometric imaging plate reader (Molecular Devices, Sunnyvale, USA). […]
TRPC4- and TRPC5-mediated Ca^2+ influx was stimulated by application of trypsin that activates endogenous Gq-coupled protease activated receptors in HEK cells. […] Compound effects were then calculated from the area under the curve and normalized to the Ca^2+ influx into trypsin-stimulated, non-compound-treated cells. […]

IC50 (TRPC5 HEK-FITR cells, fluo-4, 200 nM trypsin, read-out: IC50, inhibition of trypsin-induced Ca2+ entry via TRPC5): 11.8 µM
Hill slope n, inhibition of TRPC5-mediated Ca2+ entry (fit to Hill model): 2.5
SMILES: CC(=O)[C@H]1CC[C@H]2[C@@H]3CCC4=CC(=O)CC[C@]4(C)[C@H]3CC[C@]12C [progesterone]
